Reference: PubChem BioAssay AID2060499 (Molecular Pharmacology Branch, DTP, NCI, 2025)

Tested on: 777334-354-R2-J4-PDC tumor spheroids with HUVEC/MSC, viability
Assay: Anticancer human tumor 777334-354-R2-J4-PDC patient-derived pancreatic adenocarcinoma cell line growth inhibition [GQUAD]
Conditions: for IC50: curve of first compound; for viability, T/C: stronger effect = lower value
Procedure, shortened: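 Multi-cell-type spheroids of tumor cells with HUVEC and mesenchymal stem cells, treated with drug combinations. Concentrations descend in half-log steps from near clinical Cmax, or from 10 microM where Cmax is unknown; viability read-out.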
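Further: spheroids exposed to compounds for 7 days before readout.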

Molecule Cn1ncnc1[C@H]1c2n[nH]c(=O)c3cc(F)cc(c23)N[C@@H]1c1ccc(F)cc1 + CN(C)c1ccc(Nc2c3ccc(NC(=O)CCN4CCCC4)cc3nc3cc(NC(=O)CCN4CCCC4)ccc23)cc1 has an IC50 (second compound 0.0316 µM) of over 316 nM, an IC50 (second compound 0.1 µM) of over 316 nM and an IC50 (second compound 0.316 µM) of over 316 nM. For the same molecule, the IC50 (second compound 1 µM) was over 316 nM, the IC50 (second compound 3.16 µM) was over 316 nM and the IC50 (second compound 10 µM) was over 316 nM. For the same molecule, the viability, T/C (second compound 0.0316 µM, first compound 0.000999 µM) was 108%, the viability, T/C (second compound 0.0316 µM, first compound 0.00316 µM) was 89.9% and the viability, T/C (second compound 0.0316 µM, first compound 0.00999 µM) was 87.1%. For the same molecule, the viability, T/C (second compound 0.0316 µM, first compound 0.0316 µM) was 95.8%, the viability, T/C (second compound 0.0316 µM, first compound 0.0999 µM) was 92.2% and the viability, T/C (second compound 0.0316 µM, first compound 0.316 µM) was 79.7%. It also gave a viability, T/C (second compound 0.1 µM, first compound 0.000999 µM) of 98.7%, a viability, T/C (second compound 0.1 µM, first compound 0.00316 µM) of 85.4% and a viability, T/C (second compound 0.1 µM, first compound 0.00999 µM) of 99%. For the same molecule, the viability, T/C (second compound 0.1 µM, first compound 0.0316 µM) was 88.6%, the viability, T/C (second compound 0.1 µM, first compound 0.0999 µM) was 79.6% and the viability, T/C (second compound 0.1 µM, first compound 0.316 µM) was 81.2%. It also gave a viability, T/C (second compound 0.316 µM, first compound 0.000999 µM) of 94%, a viability, T/C (second compound 0.316 µM, first compound 0.00316 µM) of 87.4% and a viability, T/C (second compound 0.316 µM, first compound 0.00999 µM) of 93.1%. For the same molecule, the viability, T/C (second compound 0.316 µM, first compound 0.0316 µM) was 87.9%, the viability, T/C (second compound 0.316 µM, first compound 0.0999 µM) was 88.5% and the viability, T/C (second compound 0.316 µM, first compound 0.316 µM) was 70.5%. It also gave a viability, T/C (second compound 1 µM, first compound 0.000999 µM) of 103%, a viability, T/C (second compound 1 µM, first compound 0.00316 µM) of 86.6% and a viability, T/C (second compound 1 µM, first compound 0.00999 µM) of 85.5%. For the same molecule, the viability, T/C (second compound 1 µM, first compound 0.0316 µM) was 85.5%, the viability, T/C (second compound 1 µM, first compound 0.0999 µM) was 82.5% and the viability, T/C (second compound 1 µM, first compound 0.316 µM) was 69.5%. It also gave a viability, T/C (second compound 3.16 µM, first compound 0.000999 µM) of 73.5%, a viability, T/C (second compound 3.16 µM, first compound 0.00316 µM) of 72.7% and a viability, T/C (second compound 3.16 µM, first compound 0.00999 µM) of 81.6%. The viability, T/C (second compound 3.16 µM, first compound 0.0316 µM) was 89.9%, the viability, T/C (second compound 3.16 µM, first compound 0.0999 µM) was 83.1% and the viability, T/C (second compound 3.16 µM, first compound 0.316 µM) was 70.9%. The viability, T/C (second compound 10 µM, first compound 0.000999 µM) was 76.2%, the viability, T/C (second compound 10 µM, first compound 0.00316 µM) was 74.9% and the viability, T/C (second compound 10 µM, first compound 0.00999 µM) was 80.6%. For the same molecule, the viability, T/C (second compound 10 µM, first compound 0.0316 µM) was 77.6%, the viability, T/C (second compound 10 µM, first compound 0.0999 µM) was 82.2% and the viability, T/C (second compound 10 µM, first compound 0.316 µM) was 66.1%.
